Tested on: KRAS-mutant PDC complex spheroid viability
Assay: Anticancer human tumor 186277-243-T-J2-PDC patient-derived colon adenocarcinoma cell line growth inhibition [KRAS2]
Conditions: for IC50: curve of first compound; for viability, T/C: stronger effect = lower value
In short: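 Combination screen of spheroid viability in tumor-cell co-cultures with endothelial (HUVEC) and mesenchymal stem cell stroma. Each agent was tested in half-log dilutions, topping at clinical Cmax or at 10 microM without a known Cmax.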

[1] = second compound 0.0316 µM, first compound 0.0316 µM
[2] = second compound 0.0316 µM, first compound 0.1 µM
[3] = second compound 0.0316 µM, first compound 0.316 µM
[4] = second compound 0.0316 µM, first compound 1 µM
[5] = second compound 0.0316 µM, first compound 3.16 µM
[6] = second compound 0.1 µM, first compound 0.0316 µM
[7] = second compound 0.1 µM, first compound 0.1 µM
[8] = second compound 0.1 µM, first compound 0.316 µM
[9] = second compound 0.1 µM, first compound 1 µM
[10] = second compound 0.1 µM, first compound 3.16 µM
[11] = second compound 0.316 µM, first compound 0.0316 µM
[12] = second compound 0.316 µM, first compound 0.1 µM
[13] = second compound 0.316 µM, first compound 0.316 µM
[14] = second compound 0.316 µM, first compound 1 µM
[15] = second compound 0.316 µM, first compound 3.16 µM
[16] = second compound 1 µM, first compound 0.0316 µM
[17] = second compound 1 µM, first compound 0.1 µM
[18] = second compound 1 µM, first compound 0.316 µM
[19] = second compound 1 µM, first compound 1 µM
[20] = second compound 1 µM, first compound 3.16 µM
[21] = second compound 3.16 µM, first compound 0.0316 µM
[22] = second compound 3.16 µM, first compound 0.1 µM
[23] = second compound 3.16 µM, first compound 0.316 µM
[24] = second compound 3.16 µM, first compound 1 µM
[25] = second compound 3.16 µM, first compound 3.16 µM
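Wherever viability, T/C is given: viability read after seven days of compound exposure; 100% = DMSO vehicle-treated spheroids so lower means less viable.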

In the case of CC1COCCN1c1cc(-c2ccnn2C)c2ccnc(-c3ccn[nH]3)c2n1 (stereo not given) + C=CC(=O)N1CCN(c2nc(OCC3CCCN3C)nc3c2CCN(c2cccc4cccc(C)c24)C3)CC1CC#N, the IC50 (second compound 0.0316 µM) is reported as 20.3 nM, the IC50 (second compound 0.1 µM) is reported as 19.8 nM and the IC50 (second compound 0.316 µM) is reported as 19 nM. The IC50 (second compound 1 µM) was 18.3 nM, the IC50 (second compound 3.16 µM) was < 10 nM and the viability, T/C (second compound 0.0316 µM, first compound 0.01 µM) was 88.9%. The viability, T/C [1] was 25.8%, the viability, T/C [2] was 7.37% and the viability, T/C [3] was 5.84%. The viability, T/C [4] was 5.53%, the viability, T/C [5] was 6.31% and the viability, T/C (second compound 0.1 µM, first compound 0.01 µM) was 87.5%. It also gave a viability, T/C [6] of 24.3%, a viability, T/C [7] of 7.71% and a viability, T/C [8] of 5.76%. For the same compound, the viability, T/C [9] was 5.41%, the viability, T/C [10] was 5.94% and the viability, T/C (second compound 0.316 µM, first compound 0.01 µM) was 85.9%. It also gave a viability, T/C [11] of 21.6%, a viability, T/C [12] of 7.5% and a viability, T/C [13] of 5.3%. For the same compound, the viability, T/C [14] was 5.1%, the viability, T/C [15] was 5.45% and the viability, T/C (second compound 1 µM, first compound 0.01 µM) was 91.2%. The viability, T/C [16] was 12.7%, the viability, T/C [17] was 7.23% and the viability, T/C [18] was 5.64%. The viability, T/C [19] was 4.81%, the viability, T/C [20] was 4.49% and the viability, T/C (second compound 3.16 µM, first compound 0.01 µM) was 1.43%. The viability, T/C [21] was 1.73%, the viability, T/C [22] was 1.13% and the viability, T/C [23] was 1.47%. The viability, T/C [24] was 0.61% and the viability, T/C [25] was 1.05%.

For CCNC(=O)CC1N=C(c2ccc(Cl)cc2)c2cc(OC)ccc2-n2c(C)nnc21 (stereo not given) + C=CC(=O)N1CCN(c2nc(OCC3CCCN3C)nc3c2CCN(c2cccc4cccc(C)c24)C3)CC1CC#N, the IC50 (second compound 0.0316 µM) was > 10000 nM, the IC50 (second compound 0.1 µM) was > 10000 nM and the IC50 (second compound 0.316 µM) was > 10000 nM. The IC50 (second compound 1 µM) was 8180 nM, the IC50 (second compound 3.16 µM) was < 31.6 nM and the viability, T/C [1] was 100%. It also gave a viability, T/C [2] of 102%, a viability, T/C [3] of 118% and a viability, T/C [4] of 171%. It also gave a viability, T/C [5] of 151%, a viability, T/C (second compound 0.0316 µM, first compound 10 µM) of 118% and a viability, T/C [6] of 106%. The viability, T/C [7] was 99%, the viability, T/C [8] was 113% and the viability, T/C [9] was 169%. The viability, T/C [10] was 154%, the viability, T/C (second compound 0.1 µM, first compound 10 µM) was 116% and the viability, T/C [11] was 99.9%. For the same compound, the viability, T/C [12] was 96.9%, the viability, T/C [13] was 125% and the viability, T/C [14] was 149%. For the same compound, the viability, T/C [15] was 130%, the viability, T/C (second compound 0.316 µM, first compound 10 µM) was 102% and the viability, T/C [16] was 97%. For the same compound, the viability, T/C [17] was 107%, the viability, T/C [18] was 138% and the viability, T/C [19] was 138%. It also gave a viability, T/C [20] of 93.6%, a viability, T/C (second compound 1 µM, first compound 10 µM) of 40.8% and a viability, T/C [21] of 1.32%. For the same compound, the viability, T/C [22] was 10.2%, the viability, T/C [23] was 1.62% and the viability, T/C [24] was 1.12%. It also gave a viability, T/C [25] of 0.2% and a viability, T/C (second compound 3.16 µM, first compound 10 µM) of 0.24%.
